# Assay results taken from US12577247B2 (BUGWORKS RESEARCH, INC., priority 2021, dated 2026).
# Like-named read-outs stand apart in the source and are kept apart here.
# Key:
# [1] = Plasma protein binding, equilibrium dialysis, mouse; format: in vitro ADME; details: plasma (10% plasma, extrapolated to 100% plasma), CD-1 plasma, 18 hours at 37° C.
# Description: (§1) Protein binding is measured using the equilibrium dialysis technique. Compound is added to 10% plasma giving a concentration of 10 μM and dialysed with isotonic buffer for 18 hours at 37° C. The plasma and buffer solutions are analysed using generic LC UV/MS and the first apparent binding constant for the compound derived. The binding constant is then used to determine the % free in 100% plasma
# (§2) The percentage of plasma bound/unbound fraction preparation was calculated as follows
# (§3) [formula] [formula] where, • Tc=Total plasma concentration was determined by the calculated concentration on the plasma side of the chamber • Fc=[…] was determined by the calculated concentration on the buffer side of the chamber • To=Total compound concentration determined before analysis.
# [2] = molecular target: T1, hERG potassium channel (Homo sapiens, UniProt Q12809); assay: hERG inhibition assay, Qpatch HTX automated electrophysiology; format: cell-based; details: CHO cell line stably expressing hERG; whole-cell patch clamp; room temperature
# T1 construct: a Chinese Hamster Ovary cell line stably expressing the full-length hERG potassium channel; expressed in transfected cells; host or cells: Chinese Hamster Ovary cell line
# T1 sequence (Q12809 whole entry): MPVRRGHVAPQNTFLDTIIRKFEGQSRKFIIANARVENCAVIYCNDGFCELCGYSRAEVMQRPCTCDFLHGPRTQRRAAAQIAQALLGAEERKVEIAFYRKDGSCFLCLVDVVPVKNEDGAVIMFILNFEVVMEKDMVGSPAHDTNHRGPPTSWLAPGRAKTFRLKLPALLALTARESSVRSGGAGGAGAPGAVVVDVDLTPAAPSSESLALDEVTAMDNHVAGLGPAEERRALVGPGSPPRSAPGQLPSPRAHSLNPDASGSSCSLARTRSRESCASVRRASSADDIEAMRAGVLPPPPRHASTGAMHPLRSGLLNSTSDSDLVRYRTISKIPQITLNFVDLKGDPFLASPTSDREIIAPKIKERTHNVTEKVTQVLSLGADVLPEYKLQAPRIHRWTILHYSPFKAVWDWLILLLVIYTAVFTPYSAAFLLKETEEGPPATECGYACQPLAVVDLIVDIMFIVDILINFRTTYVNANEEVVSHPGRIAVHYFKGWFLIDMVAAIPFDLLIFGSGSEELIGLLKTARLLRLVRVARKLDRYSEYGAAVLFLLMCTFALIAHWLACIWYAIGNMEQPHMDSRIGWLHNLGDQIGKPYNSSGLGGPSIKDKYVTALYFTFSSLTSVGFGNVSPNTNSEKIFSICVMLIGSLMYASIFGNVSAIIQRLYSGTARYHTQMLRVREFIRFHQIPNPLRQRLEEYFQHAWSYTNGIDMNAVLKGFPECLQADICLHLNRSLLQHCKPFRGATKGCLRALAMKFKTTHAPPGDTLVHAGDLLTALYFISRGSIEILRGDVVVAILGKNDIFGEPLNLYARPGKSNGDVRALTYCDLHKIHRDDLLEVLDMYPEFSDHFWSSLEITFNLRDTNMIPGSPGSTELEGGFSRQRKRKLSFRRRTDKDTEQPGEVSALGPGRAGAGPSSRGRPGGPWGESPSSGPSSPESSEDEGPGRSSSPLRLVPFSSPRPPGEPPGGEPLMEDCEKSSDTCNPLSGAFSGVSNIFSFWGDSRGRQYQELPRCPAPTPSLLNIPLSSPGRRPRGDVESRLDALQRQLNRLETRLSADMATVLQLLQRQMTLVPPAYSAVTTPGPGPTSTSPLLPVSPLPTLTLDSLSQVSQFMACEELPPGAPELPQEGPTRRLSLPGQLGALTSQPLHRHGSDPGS
# Description: The representative compounds of formula I were tested for inhibition of the human ether a go-go related gene (hERG) K+ channel using Qpatch HTX automated electrophysiology. 6-Point concentration-response curves were generated using three-fold serial dilutions from a maximum final test concentration of […] and the results are presented in Table 3.
# Compounds were solubilised to 100 mM in DMSO before dilution in HBPS to 100 μM. […] Electrophysiological recordings were made from a Chinese Hamster Ovary cell line stably expressing the full-length hERG potassium channel. Single cell ionic currents were measured in whole-cell patch clamp configuration at room temperature (21-23° C.) using the Qpatch HTX platform (Sophion). Intracellular solution contained (mM): 120 KF, 20 KCl, 10 EGTA, 10 HEPES and was buffered to pH 7.3. […] Cells were clamped at a holding potential of −80 mV. Cells were stepped to +20 mV for 2 s then −40 mV for 3 s before returning to the holding potential. This sweep was repeated 10 times at 10 s intervals. hERG currents were measured from the tail step and referenced to the holding current. Compounds were then incubated for 2 minutes prior to a second measurement of ion channel current using an identical pulse train.
# [3] = Pharmacokinetic study in dogs; format: in vivo, male Beagle dogs; details: for half-life / Vd / clearance / bioavailability / Cmax / Tmax: male, Beagle, plasma; for half-life: dog; for Vd: read-out: Vss; for Cmax / Tmax: po, p.o; for Cmax: read-out: Cmax (head Co*/); for Tmax: read-out: Tmax (head Tma)
# Description: Intravenous (i.v) and Oral formulations for pharmacokinetic (PK) studies was formulated in different vehicles and excipients to achieve the desirable solubility for intravenous and Oral routes of administration.
# Appropriate amount of the test compound was weighed and dissolved in required volume of the vehicles, followed by vertexing for a few seconds to dissolve the compound. Then the solution (or) suspension was sonicated at room temperature for 5 minutes to obtain a visually clear solution and or homogenous suspension. All the formulations were prepared freshly at room temperature before dosing.
# The dog PK study was carried out in male Beagle dogs of minimum 10 Kg body weight to estimate the plasma clearance, volume of distribution and terminal half-life, area under curve (AUC) and peak plasma concentration (Cmax), time of peak plasma concentration (Tmax) and absolute bioavailability (% F) following intravenous and oral routes of administration.
# Briefly, Example 13 and Example 39 was administered to a group of 3 non-naïve male dogs. The first set of 3 animals received an intravenous administration and following a washout period of 7 days, received an oral administration of Example 13. Following a further 7-day washout the animals will then repeat the intravenous and oral dosing regimen with an administration of Example 39. Blood samples (1 mL) was collected from the jugular vein by venepuncture into tubes containing K2EDTA anticoagulant at the following sampling times: • IV: Predose, 0.083 (5 min), 0.25, 0.5, 1, 2, 4, 8 and 24 hrs post-dose. • PO: Predose, 0.25, 0.5, 1, 2, 4, 8 and 24 hrs post-dose.
# Immediately following collection blood samples was inverted to ensure mixing with anticoagulant and placed on wet ice. As soon as practically possible samples were centrifuged (3000 rpm, 10 min, at 4° C.) and the resultant plasma decanted into appropriately labelled polypropylene tubes in 96-well plate format and stored in a freezer set to maintain a temperature of ≤−65° C., until analysis.
# Plasma samples were analysed for a fit-for purpose LC-MS/MS method with a lower limit of quantification. The pharmacokinetic parameters were calculated using the non-compartmental analysis tool of validated Phoenix® WinNonlin® software (Certara, USA version 8.4) with linear up and log down method for estimating AUC.
# All animals in intravenous (IV bolus) group were under fed state and animals in oral groups were fasted overnight (min 12 hr) before dose administration and food was provided 4 h post dose administration. All animals were received water ad libitum during the study period. The mean (±SD) pharmacokinetic parameters of Example 13, Example 122b & Example 39 following IV bolus and Oral dose administration in Mice/Rat and Dog is provided in Table-9.
# [4] = molecular target: T2, A2A receptor (Homo sapiens, UniProt P29274); assay: A2aR antagonism IC50, cAMP TR-FRET (Lance Ultra) in HEK-293 cells, NECA as agonist; format: cell-based; details: A2AR IC50 (nM) (@5 nM NECA), HEK-293 cells expressing A2A receptor; agonist NECA 5 nM (EC90); inhibition of cAMP;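 also: compounds tested from 10 µM down to 0.08 nM in buffer with Rolipram at room temperature, TR-FRET cAMP signal read 1 h after adding Eu-cAMP tracer and ULight anti-cAMP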
# T2 construct: host or cells: HEK-293
# T2 sequence (P29274 whole entry): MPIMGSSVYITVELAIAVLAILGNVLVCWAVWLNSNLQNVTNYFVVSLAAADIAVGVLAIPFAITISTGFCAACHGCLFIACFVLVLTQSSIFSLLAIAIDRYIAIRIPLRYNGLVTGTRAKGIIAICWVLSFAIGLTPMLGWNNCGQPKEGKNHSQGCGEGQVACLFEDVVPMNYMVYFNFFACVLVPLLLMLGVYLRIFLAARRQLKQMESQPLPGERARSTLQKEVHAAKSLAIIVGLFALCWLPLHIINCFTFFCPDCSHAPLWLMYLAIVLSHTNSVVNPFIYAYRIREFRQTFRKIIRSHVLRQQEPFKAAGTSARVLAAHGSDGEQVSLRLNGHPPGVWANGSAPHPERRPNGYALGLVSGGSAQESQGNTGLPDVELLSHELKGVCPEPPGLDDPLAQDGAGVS
# [5] = Plasma protein binding, equilibrium dialysis, human; format: in vitro ADME; details: plasma (10% plasma, extrapolated to 100% plasma), 18 hours at 37° C.
# Description: as §1, §2, §3
# [6] = molecular target: T3, A2B receptor (Homo sapiens, UniProt P29275); assay: A2bR antagonism IC50, cAMP TR-FRET (Lance Ultra) in HEK-293 cells, NECA as agonist; format: cell-based; parameters: host or cells: HEK-293; details: HEK-293 cells expressing A2B receptor; agonist NECA 30 nM (EC90); inhibition of cAMP
# T3 sequence (P29275 1-332): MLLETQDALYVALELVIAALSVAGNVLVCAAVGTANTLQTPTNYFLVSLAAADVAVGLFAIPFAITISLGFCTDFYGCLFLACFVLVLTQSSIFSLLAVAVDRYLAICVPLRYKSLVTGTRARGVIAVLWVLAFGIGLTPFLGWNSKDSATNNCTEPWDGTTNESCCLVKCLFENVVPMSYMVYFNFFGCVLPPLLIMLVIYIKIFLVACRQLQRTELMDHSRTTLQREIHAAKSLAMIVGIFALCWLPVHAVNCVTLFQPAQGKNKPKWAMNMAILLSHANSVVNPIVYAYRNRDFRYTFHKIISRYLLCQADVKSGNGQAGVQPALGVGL
# Description: Adenosine A2A receptors and Adenosine A2B receptors induce the production of cAMP when activated/stimulated by an agonist like adenosine or 5′-(N-Ethylcarboxamido) adenosine (NECA). A Time-Resolved Fluorescence Energy Transfer (TR-FRET) assay was used to show the inhibition of this cAMP production in HEK cells upon treatment with compounds of the Formula I of the present disclosure.
# HEK-293 cells expressing A2A receptor (#ES-011-C) or A2B receptor (#ES 013-C) were obtained from PerkinElmer. Cells were maintained in DMEM medium supplemented with 10% FBS and 200 μg/mL of G418 at 37° C. and 5% CO2. The cells were cultured in antibiotic free medium for a period of 16-20 hours prior to the assay. All subsequent steps of the assay are performed at room temperature (22-24° C.). The cells were harvested at about 80% confluency by gentle flushing with PBS, recovered by centrifugation and resuspended in stimulation buffer at the concentration of 5.0×10^6 cells/mL.
# The assays were conducted in a stimulation buffer containing 1×DMEM, 5 mM HEPES, 0.1% BSA stabilizer and 20-30 μM Rolipram. Serial dilutions of compounds were made in stimulation buffer to achieve a final concentration of high micromolar (10 μM to 0.08 nM) in the reaction volume of 10 μL. The total reaction volume was 10 μL (5 μL of cells, 2.5 μL of antagonist and 2.5 μL of agonist). The stimulation was ended, and the reaction completed by adding 5 μL of 4× Eu-cAMP tracer working solution and 5 μL of 4× ULight-anti-cAMP working solution. The TR-FRET signal was measured after 1-hour incubation using a Tecan M1000 reader.
# [7] = iv, 3 mg/kg, Dog, IV bolus, Table 6, read-out: T1/2 (IV bolus) (converted)
# [8] = iv, 3 mg/kg, Dog, i.v, 3 mg/kg, read-out: t1/2 (converted)
# [9] = oral, 10 mg/kg, Dog, Table 6, read-out: % F
# [10] = 30 mg/kg, line stands under Dog
# [11] = Dog, oral 10 mg/kg vs IV bolus 3 mg/kg, read-out: % F (bioavailability)
"fraction unbound at 18 h, 10 µM [1]",Total systemic clearance relative to hepatic clearance ([3]; Dog),Volume of distribution relative to total body water (TBW) ([3]; Dog),"Total CLsystemic in plasma ([3]; Dog, Table 6)","Co (head Co*/) ([3]; Dog, i.v, 3 mg/kg)","half-life [3, 7]","half-life [3, 8]","Vd ([3]; intravenous, Dog, Table 6)","clearance ([3]; iv, Dog, i.v, 3 mg/kg)","Vd ([3]; iv, Dog, i.v, 3 mg/kg)","bioavailability [3, 9]","Cmax ([3]; Dog, 10 mg/kg)","Tmax ([3]; Dog, 10 mg/kg)","Cmax [3, 10]","Tmax [3, 10]","bioavailability [3, 11]",IC50 [4],"fraction unbound at 18 h, 10 µM [5]",IC50 [6],Structure (SMILES),IC50 [2]
0.125,1.7 ×,3.3 × TBW,52 mL/min/kg,1352 ng/m,27 min,24 min,2 L/kg,52 ± 8.7 mL/min/kg,2 L/kg,25%,618 ng/mL,30 min,201 ng/mL,30 min,25%,0.23 nM,0.0913,0.94 nM,"CCc1c(C)nn2c(N)c(C#N)c(NCCc3ccn(C4(CO)CC4)n3)nc12 [Example 39, 7-amino-3-ethyl-5-((2-(1-(1-(hydroxymethyl)cyclopropyl)-1H-pyrazol-3-yl)ethyl)amino)-2-methylpyrazolo[1,5-a] pyrimidine-6-carbonitrile]",> 100000 nM
,,,,,,,,,,,,,,,,,0.117,,"CCc1c(C)nn2c(N)c(C#N)c(NCCc3ccn(C4COCC4CO)n3)nc12 (single isomer, unassigned; (-)) [Example 122b, (−)-7-amino-3-ethyl-5-((2-(1-(4-(hydroxymethyl)tetrahydrofuran-3-yl)-1H-pyrazol-3-yl)ethyl)amino)-2-methyl pyrazolo[1,5-a]pyrimidine-6-carbonitrile]",> 100000 nM
0.0933,equivalent to that of hepatic clearance,3 × TBW,33 mL/min/kg,2899 ng/m,46.2 min,42 min,1.8 L/kg,33 ± 3.6 mL/min/kg,1.75 L/kg,25%,839 ng/mL,30 min,,,25%,0.25 nM,0.05,3.4 nM,"Cc1cccc(CCNc2nc3c(C)c(C)nn3c(N)c2C#N)n1 [Example 13, 7-amino-5-((2-(6-methylpyridin-2-yl)ethyl)amino)-2,3-dimethylpyrazolo[1,5-a]pyrimidine-6-carbonitrile]",> 100000 nM
